Source: patent US7264811B2, “Purified active HCV NS2/3 protease” (priority 2000, dated 2007)
pIC50: −log10 of the molar value. Where a SMILES comes first, the peptide text is derived from it.

Target: T1, NS2/3 protease (Hepatitis C virus genotype 1b, UniProt P26663)
T1 construct: In a well defined assay system using purified NS2/3 (904-1206) and an optimized cleavage buffer; made in house; host or cells: E. coli BL21(DE3)pLysS
Assay: biochemical
Set-up: species or system Hepatitis C virus (HCV) genotype 1b
Settings: for trans-cleavage of the peptide by NS2/3 protease: identical assay conditions, data not shown
Description: NS2/3 protease cleavage-site derived peptides were evaluated as potentially competing substrates (Table 1). NS2/3 protease cleavage-site derived peptides and NS4A-derived peptides were synthesized in-house using the standard solid-phase methodology or were made by Multiple Peptide Systems (San Diego, Calif.). Various concentrations of peptides were pre-incubated with 0.54 μM NS2/3 protease for 30 min at 23° C. in 50 mM Hepes, pH 7.0, and 50% (w/v) glycerol. The autocleavage reaction was initiated by addition of n-dodecyl-β-D-maltoside to a final concentration of 0.5%. The final DMSO content never exceeded 5% (v/v). The resulting mixture was then incubated for 3 h at 23° C. The reaction was stopped and quantified.

## CC[C@H](C)[C@H](NC(=O)[C@@H]1CCCN1C(=O)[C@H](C)NC(=O)[C@H](CC(C)C)NC(=O)[C@H](CC(C)C)NC(=O)[C@H](CCCNC(=N)N)NC(=O)[C@H](Cc1c[nH]c2ccccc12)NC(=O)CNC(=O)[C@H](CCC(N)=O)NC(=O)CNC(=O)[C@H](CCC(=O)O)NC(=O)[C@H](Cc1ccccc1)NC(=O)[C@@H](N)CO)C(=O)N[C@H](C(=O)N[C@@H](C)C(=O)N[C@@H](Cc1ccc(O)cc1)C(=O)N[C@@H](CO)C(=O)N[C@@H](CCC(N)=O)C(=O)N[C@@H](CCC(N)=O)C(=O)N[C@H](C(=O)O)[C@@H](C)O)[C@@H](C)O [Peptide 1, SFEGQGWRLL-APITAYSQQT]
  pIC50: 3.57
  trans-cleavage of the peptide by NS2/3 protease: no trans-cleavage

## CC(C)C[C@H](NC(=O)[C@H](CC(C)C)NC(=O)[C@H](CCCNC(=N)N)NC(=O)[C@H](Cc1c[nH]c2ccccc12)NC(=O)CNC(=O)[C@H](CCC(N)=O)NC(=O)CNC(=O)[C@H](CCC(=O)O)NC(=O)[C@H](Cc1ccccc1)NC(=O)[C@@H](N)CO)C(=O)O [Peptide 2, SFEGQGWRLL] (H-SFEGQGWRLL-OH; N-terminus and C-terminus assumed)
  pIC50: 4.05

## CC[C@H](C)[C@H](NC(=O)[C@@H]1CCCN1C(=O)[C@H](C)N)C(=O)N[C@H](C(=O)N[C@@H](C)C(=O)N[C@@H](Cc1ccc(O)cc1)C(=O)N[C@@H](CO)C(=O)N[C@@H](CCC(N)=O)C(=O)N[C@@H](CCC(N)=O)C(=O)N[C@H](C(=O)O)[C@@H](C)O)[C@@H](C)O [Peptide 3, APITAYSQQT] (H-APITAYSQQT-OH)
  pIC50: < 3.00

## CC[C@H](C)[C@H](NC(=O)[C@@H]1CCCN1C(=O)[C@H](C)NC(=O)[C@H](CC(C)C)NC(=O)[C@H](CC(C)C)NC(=O)[C@H](CCCNC(=N)N)NC(=O)[C@H](Cc1c[nH]c2ccccc12)NC(=O)CNC(=O)[C@@H](N)CCCCN)C(=O)N[C@H](C(=O)N[C@@H](C)C(=O)N[C@@H](Cc1ccc(O)cc1)C(=O)O)[C@@H](C)O [Peptide 4, KGWRLL-APITAY]
  pIC50: 3.20
  trans-cleavage of the peptide by NS2/3 protease: no trans-cleavage

## CC[C@H](C)[C@H](NC(=O)[C@@H]1CCCN1C(=O)[C@H](C)N)C(=O)N[C@H](C(=O)N[C@@H](C)C(=O)N[C@@H](Cc1ccc(O)cc1)C(=O)O)[C@@H](C)O [Peptide 5, APITAY] (H-APITAY-OH)
  pIC50: 3.00
